Experimental data taken from PubChem BioAssay (NCI).
Values joined by “and” are separate entries in the source; they are usually repeats but may differ in a detail not shown here. Equal entries are not always repeated.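 All cell lines were grown in 96-well plates and treated with compound for 48 hours. GI50 is the concentration that inhibits growth by half. TGI denotes the concentration required for complete inhibition of growth.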

Experiments:
Assay in all cases: NCI-60 cell line screen, 48 h
ACHN renal = test system: ACHN renal
OVCAR-8 ovarian = test system: OVCAR-8 ovarian
T-47D breast = test system: T-47D breast
SK-MEL-5 melanoma = test system: SK-MEL-5 melanoma
OVCAR-5 ovarian = test system: OVCAR-5 ovarian
SK-OV-3 ovarian = test system: SK-OV-3 ovarian
SW-620 colon = test system: SW-620 colon
U251 CNS = test system: U251 CNS
SF-268 CNS = test system: SF-268 CNS
RPMI-8226 leukemia = test system: RPMI-8226 leukemia

Compound | GI50 (ACHN renal) | TGI (ACHN renal) | GI50 (OVCAR-8 ovarian) | TGI (OVCAR-8 ovarian) | GI50 (T-47D breast) | TGI (T-47D breast) | GI50 (SK-MEL-5 melanoma) | TGI (SK-MEL-5 melanoma) | GI50 (OVCAR-5 ovarian) | TGI (OVCAR-5 ovarian) | GI50 (SK-OV-3 ovarian) | TGI (SK-OV-3 ovarian) | GI50 (SW-620 colon) | TGI (SW-620 colon) | GI50 (U251 CNS) | TGI (U251 CNS) | GI50 (SF-268 CNS) | TGI (SF-268 CNS) | GI50 (RPMI-8226 leukemia) | TGI (RPMI-8226 leukemia)
CNC(=O)c1cc(Oc2ccc3nc(NC(=O)Nc4ccc(CN5CCOCC5)c(C(F)(F)F)c4)sc3c2)ccn1 | 1.68 µM | 4.21 µM | 2.63 µM | 7.71 µM | 1.53 µM | 6.82 µM | 1.01 µM | 2.22 µM | 2.44 µM | 6.9 µM | 2.18 µM | 4.81 µM | 3.31 µM | 10 µM | 1.77 µM | 3.54 µM | 3.22 µM | 14.6 µM | 1.72 µM | 4.49 µM
Oc1ccc(NC(=S)Nc2ccccc2)cc1 | > 100 µM | > 100 µM | > 100 µM | > 100 µM | > 100 µM | > 100 µM | > 100 µM | > 100 µM | > 100 µM | > 100 µM | > 100 µM | > 100 µM | > 100 µM | > 100 µM | > 100 µM | > 100 µM | > 100 µM | > 100 µM | > 100 µM | > 100 µM
CCCCCC/C=C/C#CCCCCCCCC(=O)O | – | > 100 µM | – | > 100 µM | – | > 100 µM | – | > 100 µM | – | > 100 µM | – | > 100 µM | – | > 100 µM | – | > 100 µM | – | > 100 µM | – | > 100 µM
Cc1cc(S(=O)(=O)/N=C(\N)Nc2cccc(O)c2)c(SCc2ccccc2)cc1Cl | 18.2 µM | 39.4 µM | 24.3 µM | 87.1 µM | 19.4 µM | 75.7 µM | 12.1 µM | 29.6 µM | 23.4 µM | 53 µM | 19.1 µM | 37.9 µM | 29.3 µM | > 100 µM | 18.9 µM | 48.6 µM | 17.4 µM | 69 µM | 5.81 µM | > 100 µM
C=C1CCC2CC1C(C(=O)c1c[nH]c3ccccc13)=NC2(C)C (stereo not drawn) | – | > 100 µM | – | > 100 µM | – | > 100 µM | – | > 100 µM | – | > 100 µM | – | > 100 µM | – | > 100 µM | – | > 100 µM | – | > 100 µM | – | > 100 µM
CN(C)c1ccc(/C=C/C(=O)c2ccc(Nc3nc(Nc4ccc(F)cc4)nc(Nc4ccc(F)cc4)n3)cc2)cc1 | 27.4 µM | > 100 µM | 11.6 µM | 40.3 µM | 6.73 µM | 51.7 µM | 7.65 µM | 23.9 µM | 34.4 µM | > 100 µM | 14.7 µM | 55.7 µM | 18 µM | 46 µM | 17.2 µM | 55.1 µM | 24.9 µM | > 100 µM | 7.62 µM | > 100 µM
CN1CCN(CCCOc2cccc3nc(Nc4cc(Cl)cc(Cl)c4)ccc23)CC1 | 1.66 µM | 3.09 µM | 1.94 µM | 3.48 µM | 1.79 µM | 3.76 µM | 1.93 µM | 3.75 µM | 1.79 µM | 3.43 µM | 1.76 µM | 3.3 µM | 1.97 µM | 3.68 µM | 1.72 µM | 3.1 µM | 1.69 µM | 3.38 µM | 2.17 µM | 4.93 µM
NC(N)=NN=c1c(=O)c2ccccc2c1=O | 6.46 µM | 19.2 µM | 10.1 µM | 22.5 µM | 23.5 µM | 50.4 µM | 2.93 µM | 11.7 µM | 17.5 µM | 32.5 µM | 19.6 µM | 33.8 µM | 1.96 µM | 4.76 µM | 4.36 µM | 15.8 µM | 2.06 µM | 3.81 µM | 5.7 µM | 29.6 µM
Clc1ccc(-c2cc(-c3ccccc3)nc(N3CCN(CCCNc4ccnc5cc(Cl)ccc45)CC3)n2)cc1 | 1.61 µM | 2.96 µM | 1.15 µM | 2.93 µM | 1.14 µM | 3.38 µM | 1.67 µM | 3.06 µM | 1.66 µM | 3.08 µM | 1.74 µM | 3.17 µM | 1.42 µM | 3.06 µM | 1.29 µM | 2.63 µM | 1.73 µM | 3.64 µM | 1.74 µM | 4.41 µM
C[C@@H](Nc1nc(N[C@H](C)C(F)(F)F)nc(-c2cccc(Cl)n2)n1)C(F)(F)F | 36.4 µM | > 100 µM | 31.3 µM | > 100 µM | 41.8 µM | > 100 µM | 51.2 µM | > 100 µM | > 100 µM | > 100 µM | 37.6 µM | > 100 µM | > 100 µM | > 100 µM | 20.8 µM | 54 µM | 29.4 µM | > 100 µM | > 100 µM | > 100 µM
COc1cc2c(Oc3ccc(NC(=O)C4(C(=O)Nc5ccc(F)cc5)CC4)cc3F)ccnc2cc1OCCCN1CCOCC1 | 0.558 µM and 0.702 µM | 2.33 µM and 3.27 µM | 1.42 µM and 2.08 µM | 4 µM and > 10 µM | 1.37 µM and 1.44 µM | 3.63 µM and > 8.02 µM | 1.37 µM and 1.39 µM | 2.68 µM and 2.71 µM | 0.885 µM and 1.35 µM | 2.7 µM and > 8.7 µM | 1.81 µM and 1.88 µM | 3.94 µM and 5.53 µM | 0.346 µM and 0.311 µM | 1.85 µM and 2.6 µM | 1.42 µM | 3.32 µM | 0.858 µM and 1.19 µM | 2.37 µM and 7.01 µM | 2.02 µM and 1.68 µM | 5.02 µM and 7.07 µM
Nc1nc(=O)n(C2CC(O)C(CO)O2)cc1F (stereo not drawn) | 0.00802 µM and < 0.0108 µM | > 100 µM | 0.0594 µM | > 100 µM | > 100 µM | > 100 µM | 0.228 µM | > 100 µM | > 100 µM | > 100 µM | > 100 µM | > 100 µM | – | > 100 µM | < 0.0506 µM | > 100 µM | 0.00946 µM | > 100 µM | – | > 100 µM
O=C1/C(=C/c2cccnc2)SC(=S)N1Cc1ccco1 | – | > 48.9 µM | – | > 48.5 µM | – | 64.6 µM | – | > 51 µM | – | > 81.7 µM | – | > 75.9 µM | – | > 100 µM | – | 30.6 µM | – | > 23.9 µM | – | > 23.7 µM
N#CCc1c(F)c(F)c(F)c(F)c1F | – | > 100 µM | – | > 100 µM | – | > 100 µM | – | > 100 µM | – | > 100 µM | – | > 100 µM | – | > 100 µM | – | > 100 µM | – | > 100 µM | – | > 100 µM
